# Read-outs that look alike come from different tables or passages of the source.
# Experiments:
# [1] = system: ubiquinone binding site of complex I (IQ); assay: High-throughput screen: ROS production from ubiquinone binding site of complex I (IQ), isolated skeletal muscle mitochondria; format: biochemical, rat; settings: percent change in ROS from DMSO controls
# [2] = target: T1, flavin binding site of complex I (IF) (Rattus norvegicus, UniProt Q5XIH3); assay: High-throughput screen: ROS production from flavin binding site of complex I (IF); format: biochemical; settings: for IF / inhibition at 2.5 µM: percent change in ROS from DMSO controls; for inhibition at 2.5 µM: Table 7, read-out: IF
# T1 construct: freshly isolated muscle mitochondria were assayed; from tissue; host or cells: rat skeletal muscle mitochondria (Wistar, Harlan Laboratories)
# T1 sequence (Q5XIH3 21-464 limits assumed, one chain of several): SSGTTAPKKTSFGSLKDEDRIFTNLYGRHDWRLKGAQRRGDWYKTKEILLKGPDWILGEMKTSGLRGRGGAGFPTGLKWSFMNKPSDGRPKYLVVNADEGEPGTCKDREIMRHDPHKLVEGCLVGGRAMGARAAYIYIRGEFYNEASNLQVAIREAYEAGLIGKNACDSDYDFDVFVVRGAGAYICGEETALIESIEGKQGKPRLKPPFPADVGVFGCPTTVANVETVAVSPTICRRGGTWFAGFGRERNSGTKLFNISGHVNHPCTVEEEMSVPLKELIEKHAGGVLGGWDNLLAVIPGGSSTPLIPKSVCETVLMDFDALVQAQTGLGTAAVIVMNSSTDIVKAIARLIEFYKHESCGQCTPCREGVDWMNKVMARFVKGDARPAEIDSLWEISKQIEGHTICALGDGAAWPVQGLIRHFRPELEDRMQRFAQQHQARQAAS
# [3] = target: T2, outer ubiquinone binding site of complex III (IIIQO) (Rattus norvegicus, UniProt P00159+P20788); assay: High-throughput screen: ROS production from outer ubiquinone binding site of complex III (IIIQO); format: biochemical; settings: for IIIQO: Table 8
# T2 construct: freshly isolated muscle mitochondria were assayed; from tissue; host or cells: rat skeletal muscle mitochondria (Wistar, Harlan Laboratories)
# [4] = target: T3, glycerol-3-phosphate dehydrogenase (GPDH) (Rattus norvegicus, UniProt P35571); assay: High-throughput screen: ROS production from glycerol-3-phosphate dehydrogenase (GPDH); format: biochemical; design: inhibition: dose or concentration left out as unconfirmed; settings: for GPDH / inhibition: percent change in ROS from DMSO controls; for inhibition at 2.5 µM: Table 6, 25 mM glycerol phosphate, rotenone, antimycin A, malonate, myxothiazol, compounds 2.5 μM, scaled to IQ positive controls, read-out: % Reduction in ROS Production (GPDH); for inhibition: Table 7
# T3 construct: The activity of GPDH in intact mitochondria (0.3 mg/mL) was measured; from tissue; host or cells: rat skeletal muscle mitochondria (Wistar, Harlan Laboratories)
# T3 sequence (P35571 43-727): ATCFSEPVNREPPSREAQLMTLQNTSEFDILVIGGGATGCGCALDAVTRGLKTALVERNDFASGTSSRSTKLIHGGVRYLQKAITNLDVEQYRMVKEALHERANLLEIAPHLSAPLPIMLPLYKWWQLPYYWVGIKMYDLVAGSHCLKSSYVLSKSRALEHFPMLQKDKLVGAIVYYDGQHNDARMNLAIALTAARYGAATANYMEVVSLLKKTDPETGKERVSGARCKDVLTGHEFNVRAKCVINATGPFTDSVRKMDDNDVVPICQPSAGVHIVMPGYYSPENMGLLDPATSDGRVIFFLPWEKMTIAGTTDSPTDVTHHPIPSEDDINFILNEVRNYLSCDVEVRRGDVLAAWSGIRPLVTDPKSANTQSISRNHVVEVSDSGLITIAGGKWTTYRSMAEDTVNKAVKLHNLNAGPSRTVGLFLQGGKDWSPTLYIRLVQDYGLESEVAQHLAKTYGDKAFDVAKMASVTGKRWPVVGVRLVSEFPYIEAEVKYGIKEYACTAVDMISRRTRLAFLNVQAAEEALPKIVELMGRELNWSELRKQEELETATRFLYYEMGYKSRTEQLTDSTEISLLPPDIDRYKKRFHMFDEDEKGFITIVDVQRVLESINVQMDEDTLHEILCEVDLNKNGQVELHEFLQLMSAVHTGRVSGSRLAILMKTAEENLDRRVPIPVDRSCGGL
# [5] = system: mitochondrial membrane potential (ΔΨm); assay: Membrane potential (ΔΨm) counterscreen with TMRM; settings: malate, nigericin
# [6] = target: T4, succinate dehydrogenase/complex II (SDH) (Rattus norvegicus, UniProt P21913+Q641Z9+Q6PCT8+Q920L2); assay: High-throughput screen: ROS production from succinate dehydrogenase/complex II (SDH); format: biochemical; settings: for inhibition at 2.5 µM: Table 7; for inhibition at 2.5 µM / SDH: percent change in ROS from DMSO controls
# T4 construct: freshly isolated muscle mitochondria were assayed; from tissue; host or cells: rat skeletal muscle mitochondria (Wistar, Harlan Laboratories)
# T4 sequence (Q920L2 35-656): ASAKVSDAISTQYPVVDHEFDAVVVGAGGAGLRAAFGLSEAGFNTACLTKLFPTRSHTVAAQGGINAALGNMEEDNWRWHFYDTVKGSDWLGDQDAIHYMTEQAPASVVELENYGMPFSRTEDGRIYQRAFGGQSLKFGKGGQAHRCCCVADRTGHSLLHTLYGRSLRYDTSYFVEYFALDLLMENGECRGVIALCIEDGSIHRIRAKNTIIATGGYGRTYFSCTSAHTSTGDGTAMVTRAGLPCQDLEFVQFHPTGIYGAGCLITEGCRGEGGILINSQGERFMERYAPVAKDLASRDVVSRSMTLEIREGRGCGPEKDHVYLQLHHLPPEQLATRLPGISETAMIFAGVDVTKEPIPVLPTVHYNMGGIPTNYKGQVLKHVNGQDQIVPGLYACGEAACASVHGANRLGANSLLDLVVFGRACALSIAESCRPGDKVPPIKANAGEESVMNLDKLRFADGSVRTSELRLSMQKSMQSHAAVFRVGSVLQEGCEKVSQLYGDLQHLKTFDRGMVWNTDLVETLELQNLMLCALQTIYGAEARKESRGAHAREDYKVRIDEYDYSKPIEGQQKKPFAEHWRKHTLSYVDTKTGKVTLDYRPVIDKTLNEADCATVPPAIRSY
# T4 sequence (P21913 31-282): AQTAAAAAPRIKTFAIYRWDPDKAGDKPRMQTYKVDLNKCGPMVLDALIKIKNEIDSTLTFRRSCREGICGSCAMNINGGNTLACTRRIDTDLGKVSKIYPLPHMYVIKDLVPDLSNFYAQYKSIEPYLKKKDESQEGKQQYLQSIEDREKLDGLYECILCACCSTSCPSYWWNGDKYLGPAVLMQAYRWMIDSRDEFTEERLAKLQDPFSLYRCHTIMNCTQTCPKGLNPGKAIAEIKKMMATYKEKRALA
# T4 sequence (Q641Z9 30-169 limits assumed): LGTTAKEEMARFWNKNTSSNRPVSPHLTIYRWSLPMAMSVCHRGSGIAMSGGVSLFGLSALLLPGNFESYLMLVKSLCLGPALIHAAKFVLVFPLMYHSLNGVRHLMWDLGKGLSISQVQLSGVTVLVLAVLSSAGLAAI
# T4 sequence (Q6PCT8 57-159): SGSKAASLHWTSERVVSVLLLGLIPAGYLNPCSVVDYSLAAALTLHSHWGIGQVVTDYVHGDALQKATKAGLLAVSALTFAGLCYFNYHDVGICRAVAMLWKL
# [7] = percent change in ROS from DMSO controls
# [8] = Table 7, percent change in ROS from DMSO controls, read-out: IIIQO
# [9] = Table 9, percent change in ROS from DMSO controls, read-out: IIIQo
# [10] = Table 4, 5 mM succinate, 4 μM rotenone, 2.5 μM antimycin A, compounds 2.5 μM, percent change from DMSO, read-out: % Reduction in ROS production (IIIQO)
Compound,IQ ([1]; Table 8),IF ([2]; Table 8),"IIIQO [3, 7]",GPDH ([4]; Table 8),"ΔΨm ([5]; Table 8, glutamate)",IQ ([1]; Table 7),IQ ([1]; Table 9),inhibition at 2.5 µM [2] [%],IF ([2]; Table 9),"inhibition at 2.5 µM [3, 8] [%]","inhibition at 2.5 µM [3, 9] [%]",inhibition at 2.5 µM [4] [%],inhibition [4] [%],GPDH ([4]; Table 9),inhibition at 2.5 µM [6] [%],other results
CCCCN(Cc1ccccc1)Cc1cc(OC)c(OC)cc1[N+](=O)[O-] [Compound 79],0,−17,−19,−1,1,–,–,–,–,–,–,–,–,–,–,"% Reduction in ROS production (IF) ([2]; Table 3, 5 mM glutamate, 5 mM malate, 4 μM rotenone, compounds 2.5 μM, percent change from DMSO, positive control −100%): −17%; % Reduction in ROS production (IIIQO) ([3]; Table 4, 5 mM succinate, 4 μM rotenone, 2.5 μM antimycin A, compounds 2.5 μM, percent change from DMSO): −19%"
CCN1CCN(C/C=C/c2ccc(N(C)C)cc2)CC1 [Compound 48],−2.9,−6.5,−5.7,−13.4,0.0,−2.9,−2.9,6.5,−6.5,5.7,5.7,13.4,13.4,−13.4,–,"ΔΨm ([5]; Table 9, glutamate): 0.0"
CC1CC(C)(C)N(C=O)c2ccccc21 (centres unmarked) [Compound 71],1.6,7.0,6.3,−0.6,–,1.6,1.6,-7,7.0,-6.3,-6.3,–,0.6,−0.6,87.6,"% Reduction in ROS Production (SDH) ([6]; Table 5, 15 μM palmitoyl carnitine, 2.5 μM antimycin A, 2 μM myxothiazol, compounds 2.5 μM, percent change from DMSO): −87.6%; SDH ([6]; Table 8): −87.6; SDH ([6]; Table 9): −87.6"
CCCC(=O)Nc1ccc(-c2nc3cc4ccccc4cc3[nH]2)cc1 [Compound 68],–,–,–,–,–,−23.0,–,1.3,–,-1.1,–,11.1,32.1,–,3.7,–
COC(=O)c1ccc(CN(CCc2ccccc2)Cc2ccccc2)cc1 [Compound 43],−0.5,−4.4,−23.2,3.4,0.6,−0.5,−0.5,4.4,−4.4,23.2,23.2,–,-3.4,3.4,–,"inhibition at 2.5 µM [3, 10]: 23.2%; ΔΨm ([5]; Table 9, glutamate): 0.6"
O=C(Nc1ccc(-c2nc3ccccc3[nH]2)cc1)c1ccco1 [Compound 63],–,–,–,–,–,−6.9,–,-0.9,–,-1.8,–,1.7,-8.2,–,-3.5,–
O=C(O)CCC(=O)Nc1ccc(-c2nc3ccccc3s2)cc1 [Compound 65],–,–,–,–,–,−11.0,–,1.3,–,1,–,13,1.9,–,-0.2,–
Cc1ccc(NC(=O)CCC(=O)O)cc1 [Compound 67],–,–,–,–,–,−11.7,–,10.1,–,6.5,–,-1.8,11.1,–,16.8,–
O=C(O)CCC(=O)Nc1cccc(-c2nc3ccccc3[nH]2)c1 [Compound 60],–,–,–,–,–,−43.9,–,4.2,–,-1.1,–,4.4,48.3,–,3.4,–
O=C(O)CCC(=O)Nc1ccc(-c2nc3cc(NC(=O)CCC(=O)O)ccc3[nH]2)cc1 [Compound 57],–,–,–,–,–,3.1,–,-1.7,–,-0.4,–,0.8,-0.2,–,-4.2,–
CCCCN(Cc1ccccc1)Cc1cccc(Oc2ccc(Cl)cc2)c1 [Compound 44],0.4,3.1,−23.1,−3.4,1.0,0.4,0.4,-3.1,3.1,23.1,23.1,–,3.4,−3.4,–,"inhibition at 2.5 µM [3, 10]: 23.1%; ΔΨm ([5]; Table 9, glutamate): 1.0"

# Source: patent publication US20140128352A1, “COMPOUNDS AND METHODS FOR MODULATING MITOCHONDRIAL METABOLISM AND REACTIVE OXYGEN SPECIES PRODUCTION” (Buck Institute for Research on Aging, priority 2012, published 2014)
